Experimental data from patent US10618918B2, “Substituted boronic acids as antimicrobials” (priority 2015, dated 2020).

Key:
[1] = test system: PAM1032/KPC-2; test: Biapenem potentiation MPC64 in PAM1032/KPC-2 (efflux proficient, overexpresses MexAB-OprM); type: cell-based, Pseudomonas aeruginosa; details: for PAM1032/KPC-2 Biapenem MPC64: BLI concentration decreasing biapenem MIC 64-fold, from 32 μg/ml to 0.5 μg/ml, efflux proficient strain
Protocol: (§1) Efflux of BLIs from Pseudomonas aeruginosa by the MexAB-OprM efflux pump was also evaluated. The plasmid expressing the gene encoding KPC-2 was introduced into two strains of P. aeruginosa, PAM1032 and PAM 1154 that overexpressed or lacked MexAB-OprM, respectively. […] Potency of BLIs to potentiate biapenem in these strains was determined.

[2] = test system: KP1086 OXA-48; test: Biapenem potentiation (MPC@1), strain KP1086 OXA-48; type: cell-based; details: for BPM MPC1 OXA-48 KP1086: minimum BLI concentration inhibiting growth with biapenem 1 μg/mL, tested up to 40 μg/mL
Protocol: (§2) Biapenem was present in the test medium at 1 μg/mL. […] Table 3 summarizes the BLI potency of biapenem potentiation (MPC@1) for two strains overexpressing class A (KPC) and class D (OXA-48) carbapenemases. Biapenem MIC for each strain is also shown.

[3] = test system: KP1004 KPC-2; test: Biapenem potentiation (MPC@1), strain KP1004 KPC-2; type: cell-based; details: for BPM MPC1 KP1004 KPC-2: minimum BLI concentration inhibiting growth with biapenem 1 μg/mL, tested up to 40 μg/mL
Protocol: as §2

[4] = test system: PAM1154/KPC-2; test: Biapenem potentiation MPC64 in PAM1154/KPC-2 (efflux deficient, lacks MexAB-OprM); type: cell-based, Pseudomonas aeruginosa; details: for PAM1154/KPC-2 Biapenem MPC64: BLI concentration decreasing biapenem MIC 64-fold, from 32 μg/ml to 0.5 μg/ml, efflux deficient strain
Protocol: as §1

[5] = test system: EC1010 CMY-6; test: Aztreonam potentiation (MPC@4), strain EC1010 CMY-6; details: minimum BLI concentration inhibiting growth with aztreonam 4 μg/mL; tested up to 40 μg/mL
[6] = test system: KP1009 CTX-M-15; test: Aztreonam potentiation (MPC@4), strain KP1009 CTX-M-15; details: minimum BLI concentration inhibiting growth with aztreonam 4 μg/mL; tested up to 40 μg/mL
[7] = target: purified class A, C and D enzymes (β-lactamases) (Enterobacter cloacae, UniProt P05364); test: biochemical; type: biochemical; details: purified P99; nitrocefin (NCF) as reporter substrate
[8] = target: T1, purified class A, C and D enzymes (β-lactamases) (UniProt P0AD64, L31Q/G234S/E235K, species not given); test: biochemical; type: biochemical; details: purified SHV-12; nitrocefin (NCF) as reporter substrate; read-out: Ki (SHV-12, NCF)
T1 construct: Ki (SHV-12, NCF), uM; other: purified SHV-12; nitrocefin (NCF) as reporter substrate
T1 sequence (P0AD64 1-286 L31Q/G234S/E235K): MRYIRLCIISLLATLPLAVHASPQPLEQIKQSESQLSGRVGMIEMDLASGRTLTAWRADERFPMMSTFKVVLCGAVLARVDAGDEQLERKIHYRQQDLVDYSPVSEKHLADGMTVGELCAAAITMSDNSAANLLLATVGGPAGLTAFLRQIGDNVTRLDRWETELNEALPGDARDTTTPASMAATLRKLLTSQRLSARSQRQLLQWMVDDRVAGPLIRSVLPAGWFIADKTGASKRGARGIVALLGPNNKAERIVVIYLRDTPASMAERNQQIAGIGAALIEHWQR

[9] = target: purified class A, C and D enzymes (β-lactamases) (Klebsiella pneumoniae, UniProt Q9F663); test: biochemical; type: biochemical; details: purified KPC-2; nitrocefin (NCF) as reporter substrate
[10] = target: purified class A, C and D enzymes (β-lactamases) (Klebsiella pneumoniae, UniProt Q6XEC0); test: biochemical; type: biochemical; details: purified OXA-48; nitrocefin (NCF) as reporter substrate
[11] = target: purified class A, C and D enzymes (β-lactamases) (Escherichia coli, UniProt Q9L5C7); test: biochemical; type: biochemical; details: purified CTX-M-14; nitrocefin (NCF) as reporter substrate
[12] = test system: KP1005 CTX-M-14; test: Tigemonam potentiation (MPC@4), strain KP1005 CTX-M-14; details: minimum BLI concentration inhibiting growth with tigemonam 4 μg/mL; tested up to 40 μg/mL
[13] = test system: KP1004 KPC-2; test: Aztreonam potentiation (MPC@4), strain KP1004 KPC-2; details: minimum BLI concentration inhibiting growth with aztreonam 4 μg/mL; tested up to 40 μg/mL
[14] = test system: ec308 SHV-5; test: Aztreonam potentiation (MPC@4), strain ec308 SHV-5; details: minimum BLI concentration inhibiting growth with aztreonam 4 μg/mL; tested up to 40 μg/mL
[15] = test system: ECL1002; test: Aztreonam potentiation (MPC@4), strain ECL1002; details: minimum BLI concentration inhibiting growth with aztreonam 4 μg/mL; tested up to 40 μg/mL
[16] = test system: KP1010 SHV-12; test: Aztreonam potentiation (MPC@4), strain KP1010 SHV-12; details: minimum BLI concentration inhibiting growth with aztreonam 4 μg/mL; tested up to 40 μg/mL
[17] = test system: ec302 TEM-10; test: Aztreonam potentiation (MPC@4), strain ec302 TEM-10; details: minimum BLI concentration inhibiting growth with aztreonam 4 μg/mL; tested up to 40 μg/mL
[18] = target: T2, purified class A, C and D enzymes (β-lactamases) (Pseudomonas aeruginosa, UniProt P24735); test: biochemical; type: biochemical; details: purified Pa-AmpC; nitrocefin (NCF) as reporter substrate; read-out: Ki (Pa-AmpC, NCF)
T2 construct: rows headed: Ki (Pa-AmpC, NCF), uM; other: purified Pa-AmpC; nitrocefin (NCF) as reporter substrate

[19] = target: T3, purified class A, C and D enzymes (β-lactamases) (Acinetobacter baumannii, UniProt Q9L4P2); test: biochemical; type: biochemical; details: purified OXA-23; nitrocefin (NCF) as reporter substrate
T3 construct: rows headed: Ki (OXA-23, NCF), uM; other: purified OXA-23; nitrocefin (NCF) as reporter substrate

[20] = test system: AB1053 OXA-72; test: Meropenem potentiation (MPC@8), strain AB1053 OXA-72; type: cell-based, Acinetobacter baumannii; details: minimum BLI concentration inhibiting growth with meropenem 8 μg/mL; tested up to 20 μg/mL
[21] = test system: AB1054 OXA-23; test: Meropenem potentiation (MPC@8), strain AB1054 OXA-23; type: cell-based, Acinetobacter baumannii; details: minimum BLI concentration inhibiting growth with meropenem 8 μg/mL; tested up to 20 μg/mL

SMILES | PAM1032/KPC-2 Biapenem MPC64 [1] | AZT MPC4 CMY-6 EC1010 [5] | AZT MPC4 CTX-M-15 KP1009 [6] | Ki (P99, NCF), uM [7] | Ki [8] [nM] | Ki (KPC-2, NCF), uM [9] | Ki (OXA-48, NCF), uM [10] | Ki (CTX-M-14, NCF), uM [11] | BPM MPC1 OXA-48 KP1086 [2] | TIG MPC4 CTX-M-14 KP1005 [12] | BPM MPC1 KP1004 KPC-2 [3] | AZT MPC4 KPC-2 KP1004 [13] | PAM1154/KPC-2 Biapenem MPC64 [4] | AZT MPC4 SHV-5 ec308 [14] | AZT MPC4 ECL1002 [15] | AZT MPC4 SHV-12 KP1010 [16] | AZT MPC4 TEM-10 ec302 [17] | Ki [19] [nM] | MPM MPC8 AB1053 OXA-72 [20] | MPM MPC8 AB1054 OXA-23 [21] | other results
C[C@@H](O)[C@H]1C(=O)N2C(C(=O)[O-])=C(SC3Cn4cnc[n+]4C3)[C@H](C)[C@H]12 (stereo partly drawn) [Biapenem, reference compound] |  |  |  |  |  |  |  |  |  |  |  |  |  |  |  |  |  |  |  |  | MIC ([1]; Pseudomonas aeruginosa, P. aeruginosa PAM1032 expressing KPC-2, biapenem alone): 32 µg/mL; MIC ([2]; strain KP1086 OXA-48, biapenem alone): 16 µg/mL; MIC ([3]; strain KP1004 KPC-2, biapenem alone): 32 µg/mL; MIC ([4]; Pseudomonas aeruginosa, P. aeruginosa PAM1154 expressing KPC-2, biapenem alone): 32 µg/mL
O=C(Cc1cccs1)NC1CB(O)Oc2c(C(=O)O)cccc21 (stereo not drawn) [Compound 1, 2-HYDROXY-4-(2-(THIOPHEN-2-YL)ACETAMIDO)-3,4-DIHYDRO-2H-BENZO[E][1,2]OXABORININE-8-CARBOXYLIC ACID] | 40 | X (X = MPC@4 ≤ 5 μg/mL) | X (X = MPC@4 ≤ 5 μg/mL) | X (X = Ki ≤ 0.1 μM) | < 100 | X (X = Ki ≤ 0.1 μM) | X (X = Ki ≤ 0.1 μM) | X (X = Ki ≤ 0.1 μM) | Y (Y = 5 μg/mL < MPC@1 ≤ 20 μg/mL) | X (X = MPC@4 ≤ 5 μg/mL) | X (X = MPC@1 ≤ 5 μg/mL) | X (X = MPC@4 ≤ 5 μg/mL) | 2.5 | X (X = MPC@4 ≤ 5 μg/mL) | Y (Y = 5 μg/mL < MPC@4 ≤ 20 μg/mL) | X (X = MPC@4 ≤ 5 μg/mL) | X (X = MPC@4 ≤ 5 μg/mL) |  |  |  | 
Nc1nnc(C(=O)NC2CB(O)Oc3c(C(=O)O)cccc32)s1 (stereo not drawn) [Compound 2, 4-(5-AMINO-1,3,4-THIADIAZOLE-2-CARBOXAMIDO)-2-HYDROXY-3,4-DIHYDRO-2H-BENZO[E][1,2]OXABORININE-8-CARBOXYLIC ACID] | 20 | X (X = MPC@4 ≤ 5 μg/mL) | X (X = MPC@4 ≤ 5 μg/mL) | X (X = Ki ≤ 0.1 μM) | < 100 | X (X = Ki ≤ 0.1 μM) | X (X = Ki ≤ 0.1 μM) | X (X = Ki ≤ 0.1 μM) | X (X = MPC@1 ≤ 5 μg/mL) | X (X = MPC@4 ≤ 5 μg/mL) | X (X = MPC@1 ≤ 5 μg/mL) | X (X = MPC@4 ≤ 5 μg/mL) | 1.25 | X (X = MPC@4 ≤ 5 μg/mL) | X (X = MPC@4 ≤ 5 μg/mL) | X (X = MPC@4 ≤ 5 μg/mL) | X (X = MPC@4 ≤ 5 μg/mL) |  |  |  | 
CSCC(=O)NC1CB(O)Oc2c(C(=O)O)cccc21 (stereo not drawn) [Compound 3, 2-HYDROXY-4-(2-(METHYLTHIO)ACETAMIDO)-3,4-DIHYDRO-2H-BENZO[E][1.2]OXABORININE-8-CARBOXYLIC ACID] | 20 | X (X = MPC@4 ≤ 5 μg/mL) | X (X = MPC@4 ≤ 5 μg/mL) | X (X = Ki ≤ 0.1 μM) | < 100 | X (X = Ki ≤ 0.1 μM) | X (X = Ki ≤ 0.1 μM) | X (X = Ki ≤ 0.1 μM) | X (X = MPC@1 ≤ 5 μg/mL) | X (X = MPC@4 ≤ 5 μg/mL) | X (X = MPC@1 ≤ 5 μg/mL) | X (X = MPC@4 ≤ 5 μg/mL) | 2.5 | X (X = MPC@4 ≤ 5 μg/mL) | X (X = MPC@4 ≤ 5 μg/mL) | X (X = MPC@4 ≤ 5 μg/mL) | X (X = MPC@4 ≤ 5 μg/mL) | < 100 | Y (Y = 5 μg/mL < MPC@1 ≤ 20 μg/mL) | Z (Z = MPC@1 > 20 μg/mL) | Ki [18]: < 100 nM
O=C(O)c1cccc2c1OB(O)CN2S(=O)(=O)Cc1ccccc1 [Compound 4, 4-(BENZYLSULFONYL)-2-HYDROXY-3,4-DIHYDRO-2H-BENZO[E][1,4,2]OXAZABORININE-8-CARBOXYLIC ACID] | >80 | Z (Z = MPC@4 > 20 μg/mL) | Z (Z = MPC@4 > 20 μg/mL) | X (X = Ki ≤ 0.1 μM) | < 100 | X (X = Ki ≤ 0.1 μM) | X (X = Ki ≤ 0.1 μM) | X (X = Ki ≤ 0.1 μM) | Z (Z = MPC@1 > 20 μg/mL) | Z (Z = MPC@4 > 20 μg/mL) | X (X = MPC@1 ≤ 5 μg/mL) | Z (Z = MPC@4 > 20 μg/mL) | 5 | Z (Z = MPC@4 > 20 μg/mL) | Z (Z = MPC@4 > 20 μg/mL) | Z (Z = MPC@4 > 20 μg/mL) | Z (Z = MPC@4 > 20 μg/mL) |  |  |  | 
O=C(O)c1cccc2c1OB(O)CC2 [Compound 5, 2-HYDROXY-3,4-DIHYDRO-1,2-BENZOXABORININE-8-CARBOXYLIC ACID] | 20 | Y (Y = 5 μg/mL < MPC@4 ≤ 20 μg/mL) | Y (Y = 5 μg/mL < MPC@4 ≤ 20 μg/mL) | X (X = Ki ≤ 0.1 μM) | < 100 | X (X = Ki ≤ 0.1 μM) | X (X = Ki ≤ 0.1 μM) | X (X = Ki ≤ 0.1 μM) | X (X = MPC@1 ≤ 5 μg/mL) | Z (Z = MPC@4 > 20 μg/mL) | X (X = MPC@1 ≤ 5 μg/mL) | X (X = MPC@4 ≤ 5 μg/mL) | 0.3 | Z (Z = MPC@4 > 20 μg/mL) | Z (Z = MPC@4 > 20 μg/mL) | Y (Y = 5 μg/mL < MPC@4 ≤ 20 μg/mL) | Z (Z = MPC@4 > 20 μg/mL) | 100 to 1000 | Z (Z = MPC@1 > 20 μg/mL) | Y (Y = 5 μg/mL < MPC@1 ≤ 20 μg/mL) | 
